For this test, the target named is T1, Thromboxane A2 receptor (Mus musculus, UniProt P30987).
T1 sequence (P30987 whole entry): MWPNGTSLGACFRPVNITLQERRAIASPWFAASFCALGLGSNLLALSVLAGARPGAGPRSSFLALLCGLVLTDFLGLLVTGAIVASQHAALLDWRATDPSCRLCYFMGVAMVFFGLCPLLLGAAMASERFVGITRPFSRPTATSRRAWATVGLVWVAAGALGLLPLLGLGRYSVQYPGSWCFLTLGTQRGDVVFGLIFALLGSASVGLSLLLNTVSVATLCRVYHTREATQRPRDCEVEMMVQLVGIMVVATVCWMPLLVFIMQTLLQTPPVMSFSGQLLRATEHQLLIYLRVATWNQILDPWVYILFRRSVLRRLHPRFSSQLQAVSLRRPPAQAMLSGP

“And” between values parts separate entries of the source, which are not always exact repeats. Equal values may be shown once.

As usually defined, the Ki is a measure of affinity in units of concentration, obtained from inhibition or displacement.

On to `CCCCC[C@H](O)/C=C/[C@@H]1[C@@H](C/C=C\CCCC(=O)O)[C@@H]2C[C@H]1OO2` [PGH2], for which the Ki was 200 nM and 1600 nM. In turn, `CCCCC(C)(C)[C@H](O)/C=C/[C@@H]1[C@@H](C/C=C\CCCC(=O)O)[C@@H](O)C[C@H]1O` displayed a Ki of 770 nM. Compound `CCCCC[C@H](O)/C=C/C1C[C@H]2C[C@H](C2)[C@@H]1C/C=C\CCCC(=O)O` (some centres undefined) [CAS_74034-56-3] yielded an inhibition constant (Ki) of 1500 nM. In the case of `CCCCC[C@H](O)/C=C/[C@H]1C2OC2C(=O)[C@@H]1C/C=C\CCCC(=O)O` (stereo partly drawn) [10alpha,11alpha-oxido PGA2], the Ki is > 10000 nM. The value for `O=C(O)CCC/C=C/C[C@H]1C2C=CC(C2)[C@@H]1/C=C/[C@H](O)COc1ccc(F)cc1` (some centres undefined) [EP011] was 1200 nM; that for `CCCCC[C@H](O)/C=C/[C@H]1O[C@H]2C[C@H](O2)[C@@H]1C/C=C\CCCC(=O)O` [CAS_57576-52-0] was 1300 nM. Turning to `CCCCC[C@@H](O)/C=C/[C@H]1[C@H](O)CC(=O)[C@@H]1CCCCCCC(=O)O`, the Ki is > 10000 nM. Turning to `CCCCC[C@H](O)/C=C/[C@H]1[C@H](O)CC(=O)[C@@H]1C/C=C\CCCC(=O)O` [DINOPROSTONE], the Ki is > 10000 nM.

`CCCCC/C=C\C/C=C\C/C=C\C/C=C\CCCC(=O)O` [[1-14C]Arachidonic acid]: the Ki is > 10000 nM.

Compound `CCCCC[C@H](O)/C=C/[C@@H]1[C@@H](/C=C\CCCC(=O)O)[C@H]2CO[C@@H]1C2` [11,9-epoxymethano PGH2] registered an inhibition constant Ki of 360 nM. The compound `CCCCC[C@H](O)CC[C@H]1c2cc([nH]n2)[C@@H]1CC=CCCCC(=O)O` [9,11-AzoPGH2] gave a Ki of 1100 nM. This Ki is about 3.1-fold higher than that of the compound before.

With `CCCCC[C@@H](O)/C=C/[C@H]1C[C@H]2C[C@@H]([C@@H]1C/C=C\CCCC(=O)O)C2(C)C` [CAS_71111-01-8], the affinity corresponds to a Ki of 1400 nM.

In the case of `CCCCCC(C)(O)C=CC1C(O)CC(O)C1CC=CCCCC(=O)O` (centres undefined) [NSC_37255], the inhibition constant (Ki) was > 10000 nM.

`CCCCCC(O)CC=C1C(=O)C=CC1CC=CCCCC(=O)O` (centres undefined) [CAS_41598-07-6]: the inhibition constant Ki is > 10000 nM. The compound `O=C(O)CCCC=CCC1C2CCC(C2)C1C=NNC(=O)Nc1ccccc1` (centres undefined) [NSC_5311388] yielded an inhibition constant (Ki) of 460 nM. For the compound `CCCCC[C@H](O)/C=C/C1[C@H](O)C[C@H](O)[C@@H]1C/C=C\CCCC(=O)O` (stereo partly drawn) [(Z)-7-[(1R,3R,5S)-3,5-Dihydroxy-2-((E)-(S)-3-hydroxy-oct-1-enyl)-cyclopentyl]-hept-5-enoic acid], the inhibition constant Ki is > 10000 nM. In the case of `COc1cc(CC2NCCc3cc(O)c(O)cc32)cc(OC)c1OC` (centres undefined) [1-(3,4,5-Trimethoxy-benzyl)-1,2,3,4-tetrahydro-isoquinoline-6,7-diol], the Ki is > 10000 nM. The value for `O=C(O)CCCC=CCC1C(O)CC(O)C1C=CC(O)COc1ccc(F)cc1` (centres undefined) [CAS_188200] was 320 nM; that for `CCCCCC(O)C=CC1C2CCC(C2)C1CC=CCCCC(=O)O` (centres undefined) [9,11-ethano PGH2] was 440 nM.
